Data published in patent EP4755396A1, “TREATMENT OF P53 GENE MUTATION OR DEFECT NEGATIVE CANCER AND TUMOR PATIENTS” (Ascentawits Pharmaceuticals, Ltd., priority 2023, dated 2025).
Like-named read-outs stand apart in the source and are kept apart here.

Key:
[1] = test system: H460 cells; test: Cell cycle G2/M arrest, PI staining flow cytometry; format: cell-based
Method: Overview of the experimental process: • 1) H460/HPAF-II cell suspensions were added to a 24-well plate, with a cell density of 100000 /well and 995 µL of medium per well. • 2) The cells were cultured overnight in an incubator at 37°C, 5% CO2. • 3) Compound Treatment
4) The cells were digested, centrifuged at 1000 g at 4°C, washed once with pre-cooled PBS, centrifuged at 1000 g at 4°C, and fixed with 1 mL of pre-cooled 70% ethanol at -20°C overnight.
5) The cells were centrifuged at 3000g at 4°C, washed once with pre-cooled PBS (phosphate buffer), centrifuged at 3000g at 4°C. Prepare PI staining solution. The cells were stained at 37°C away from light for 30 minutes, and stored in an ice bath away from light. Flow cytometric detection was performed on the same day, and the proportion of cells in different cell cycle phases was analyzed using FlowJo.

[2] = test system: H460 P53 KO #12; test: In vitro cell proliferation inhibition under normoxia, p53 knockout cells; format: cell-based, human; conditions: for IC50: Homo sapiens, NCI-H460, H460 P53 KO # 12, normoxia, 72 hours, alone or with 3µM AST-3021 as labelled (Example 10)
Method: (§1) The p53 CRISPR/Cas9 KO plasmid (human) and p53 HDR plasmid (human) were purchased from Santa Cruz Company to construct H460 P53 KO cell lines, namely p53 knockout (KnockOut) H460 cell lines. Three groups of H460 P53 KO cell lines were constructed with numbers of H460 P53 KO # 1, H460 P53 KO # 7, and H460 P53 KO # 12.
(§2) After co-incubation for 15 minutes, they were added dropwise to the culture medium and mixed well.
(§3) After 48 h, 2 µg/mL puromycin was added for screening.
(§4) When the cell colonies grew to a sufficient size, single colonies were picked and cultured.
(§5) When the cell number reached a sufficient quantity, samples were collected for WB identification of the colonies.
(§6) H460 P53 KO cell lines, i.e. H460 P53 KO # 1, H460 P53 KO # 7, H460 P53 KO # 12 cell lines were used in experiments, respectively.

[3] = test system: H460 P53 KO #7; test: as above; format: cell-based, human; conditions: for IC50: Homo sapiens, NCI-H460, H460 P53 KO # 7, normoxia, 72 hours, alone or with 3µM AST-3021 as labelled (Example 10)
Method: as §1, §2, §3, §4, §5, §6

[4] = test system: H460 cells; test: In vitro cell proliferation inhibition under normoxia (96-well, CTG, 72 hours); format: cell-based, human; conditions: for IC50 / inhibition at 0.0005 µM / inhibition at 0.0015 µM: Homo sapiens; for inhibition at 0.0005 µM: AST 0.5 nM; for inhibition at 0.0015 µM: AST 1.5 nM
Method: Overview of the experimental process • 1) H460 cell suspension was added to a 96-well plate at 100 µL per well, with a cell density of 2000 /well. • 2) The cells were cultured overnight in an incubator at 37°C, 5% CO2. • 3) Compound Treatment
Monotherapy: After 24 hours of cell plating, each well was supplied with 99.5 µL of growth medium then added with 0.5µL of test compounds at different concentrations, shaken gently to ensure even mixing, and then placed at 37°C, 5% CO2 in an incubator.
(§7) Combination therapy: After 24 hours of cell plating, each well was supplied with 99 µL of growth medium then added with 0.5µL of the combined action compound Nutlin-3, shaken gently to ensure even mixing, and then placed in an incubator for 2 hours. Then each well was added with 0.5µL of test compounds at different concentrations, shaken gently to ensure even mixing, and then placed at 37°C, 5% CO2 in an incubator.
(§8) 4) The cell plate was placed in the incubator for 72 hours.
(§9) 5) The cell plate to be tested was placed at room temperature to equilibrium for 30 minutes, and 100µL of medium was discarded per well.
(§10) 6) 25µL of CTG reagent was added to each well, placed at a fast shaker to shake for 2 minutes, and placed at room temperature away from light for 30 minutes.
(§11) 7) The chemiluminescence signal value was read using a multifunctional microplate reader with a reading time of 1000 ms.
8) IC50 was calculated with Graph Pad Prism 5 software.
(§12) • 1) H460 and HPAF-II cell suspensions were added to a 96-well plate at 100 µL per well, with a cell density of 2000 /well and 20000/well, respectively. • 2) The cells were cultured overnight in an incubator at 37°C, 5% CO2. • 3) Compound Treatment
(§13) Combination therapy: After 24 hours of cell plating, 99 µL of growth medium was supplied to each well. Each well was added with 0.5 µL of Nutlin-3 or RITA, shaken gently to ensure even mixing, and then placed in an incubator for 2 hours. Then each well was added with 0.5µL of test compounds at different concentrations, shaken gently to ensure even mixing, and then placed at 37°C, 5% CO2 in an incubator.
(§14) Monotherapy: After 24 hours of cell plating, 99.5 µL of growth medium was supplied to each well. Then each well was added with 0.5µL of test compounds at different concentrations, shaken gently to ensure even mixing, and then placed at 37°C, 5% CO2 in an incubator.
(§15) 7) The chemiluminescence signal value was read using a multifunctional microplate reader with a reading time of 1000 ms. The corresponding inhibition rate data were calculated.
(§16) • 1) NCI-H460, NCI-H460 P53KO # 1 cell suspensions were added to a 96-well plate at 100 µL per well, with a cell density of 2000 /well. • 2) The cells were cultured overnight in an incubator at 37°C, 5% CO2. • 3) Compound Treatment
as §7, with “plating,” for “plating, each well was supplied with”, “of” for “of growth”, “medium was supplied to each well. Each well was” for “medium then”, “of” for “of the”, “action compound,” for “action compound Nutlin-3,”
(§17) 8) The ICso (half maximal inhibitory concentration) values were calculated using GraphPad Prism 5 software.

[5] = test system: H460 P53 KO #1; test: In vitro cell proliferation inhibition under normoxia, p53 knockout cells; format: cell-based, human; conditions: for IC50: Homo sapiens, 72 hours
Method: as §1, §2, §3, §4, §5, §6, §16, §14
as §7, with “plating,” for “plating, each well was supplied with”, “of” for “of growth”, “medium was supplied to each well. Each well was” for “medium then”, “of” for “of the”, “action compound,” for “action compound Nutlin-3,”
as §8, §9, §10, §11, §17

[6] = test system: HPAF-II cells; test: In vitro cell proliferation inhibition (96-well, CTG, 72 hours); format: cell-based; conditions: for inhibition at 0.06 µM / inhibition at 0.2 µM / inhibition at 1.667 µM / inhibition at 5 µM: Homo sapiens, HPAF-II cells, 72 hours; for inhibition at 0.06 µM: AST 60 nM; for inhibition at 0.2 µM: AST 200 nM; for inhibition at 1.667 µM: AST 1667 nM; for inhibition at 5 µM: AST 5000 nM
Method: as §12, §13, §14, §8, §9, §10, §15

`C[C@H](OP(=O)(N1CC1)N1CC1)c1ccc([N+](=O)[O-])c(Oc2cccc(C(=O)N(C)C)c2)c1` [AST-3424] was tested, and the “cell cycle (G0/G1, S, G2/M phases)” value ([1]; first experiment, 0.1 nM AST-3424, 5 µM Nutlin-3, 24 hours, combination: AST-3424 first (Figure 5)) was “did not significantly alter the cell cycle”, the “G2/M cell cycle arrest” value ([1]; second experiment, 0.03-1 nM AST-3424, 5 µM Nutlin-3, AST-3424 pre-treatment 2 hours (Figure 6)) was “concentration-dependent G2/M cell cycle arrest” and the IC50 [2] was 1.99 nM. For the same compound, the IC50 [3] was 23.1 nM, the “proliferation inhibition rate of AST-3424” value ([4]; H460 cells, Nutlin-3 added 2 hours in advance, followed by AST-3424, 72 hours (Figure 1)) was “increase significantly” and the IC50 ([4]; NCI-H460, 72 h, H460 WT, normoxia, 72 hours, alone or with 3µM AST-3021 as labelled (Example 10)) was 0.23 nM. It also gave an IC50 ([4]; NCI-H460, 72 h, NCI-H460, normoxia, 72 hours, alone or with 3 µM AST-3021 as labelled (Example 13)) of 0.43 nM, an IC50 ([5]; NCI-H460, 72 h, H460 P53 KO # 1, normoxia, alone or with 3µM AST-3021 as labelled (Example 10)) of 11.3 nM and an IC50 ([5]; NCI-H460, 72 h, NCI-H460 P53KO # 1, normoxia, alone or with 3 µM AST-3021 as labelled (Example 13)) of 5.45 nM.

In the case of `O=[N+]([O-])c1ccc(C(OP(=O)(N2CC2)N2CC2)C(F)(F)F)cc1Oc1ccc(-c2ccc(F)cc2)c(F)c1` (stereo not shown) [AST], the “concentration needed to achieve an inhibition rate of 11-12%” value ([6]; AST monotherapy, p53 mutant HPAF-II cells) is reported as 60 nM, the inhibition at 0.06 µM ([6]; RITA 2.5 µM, AST + RITA 60+2.5, read-out: Inhibition rate, experimental group 1) is reported as 14.9% and the inhibition at 0.06 µM ([6]; RITA 5 µM, AST + RITA 60+5, read-out: Inhibition rate, experimental group 2) is reported as 14.9%. The inhibition at 0.2 µM ([6]; RITA 2.5 µM, AST + RITA 200+2.5, read-out: Inhibition rate, experimental group 3) was 11.8%, the inhibition at 0.2 µM ([6]; RITA 5 µM, AST + RITA 200+5, read-out: Inhibition rate, experimental group 4) was 11.8% and the inhibition at 1.667 µM ([6]; RITA 2.5 µM, AST + RITA 1667+2.5, read-out: Inhibition rate, experimental group 5) was 74.3%. The inhibition at 1.667 µM ([6]; RITA 5 µM, AST + RITA 1667+5, read-out: Inhibition rate, experimental group 6) was 74.3%, the inhibition at 5 µM ([6]; RITA 2.5 µM, AST + RITA 5000+2.5, read-out: Inhibition rate, experimental group 7) was 68.8% and the inhibition at 5 µM ([6]; RITA 5 µM, AST + RITA 5000+5, read-out: Inhibition rate, experimental group 8) was 68.8%. For the same compound, the IC50 [2] was 28 nM, the “Ratio (monotherapy), knockout/wild” value ([2]; IC50 ratio, H460 P53 KO # 12 versus H460 WT) was 10.96 and the IC50 [3] was 220 nM. For the same compound, the “Ratio (monotherapy), knockout/wild” value ([3]; IC50 ratio, H460 P53 KO # 7 versus H460 WT) was 86.08, the “concentration required to achieve an inhibition rate of 11-12%” value ([4]; AST monotherapy, p53 wild-type H460 cells) was 1.5 nM and the IC50 ([4]; NCI-H460, H460 WT, normoxia, 72 hours, alone or with 3µM AST-3021 as labelled (Example 10), read-out: IC50) was 2.55 nM. It also gave an inhibition at 0.0005 µM ([4]; NCI-H460, H460 cells, 72 hours, RITA 0.025 µM, AST + RITA 0.5+0.025, read-out: Inhibition rate result, experimental group 1) of -0.29%, an inhibition at 0.0005 µM ([4]; NCI-H460, H460 cells, 72 hours, RITA 0.05 µM, AST + RITA 0.5+0.05, read-out: Inhibition rate result, experimental group 2) of -0.29% and an inhibition at 0.0015 µM ([4]; NCI-H460, H460 cells, 72 hours, RITA 0.025 µM, AST + RITA 1.5+0.025, read-out: Inhibition rate result, experimental group 3) of 12.2%. The inhibition at 0.0015 µM ([4]; NCI-H460, H460 cells, 72 hours, RITA 0.05 µM, AST + RITA 1.5+0.05, read-out: Inhibition rate result, experimental group 4) was 12.2%, the IC50 ([4]; NCI-H460, H460 cells, monotherapy, applicant's previous cancer cell proliferation inhibition test data, read-out: IC50) was 6.87 nM and the IC50 ([5]; NCI-H460, H460 P53 KO # 1, normoxia, alone or with 3µM AST-3021 as labelled (Example 10)) was 264 nM. For the same compound, the “Ratio (monotherapy), knockout/wild” value ([5]; IC50 ratio, H460 P53 KO # 1 versus H460 WT) was 103.53.
